According to PubChem BioAssay (NCI):
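Method: 48-hour compound exposure of cells in 96-well plates, five concentrations, linear interpolation of endpoints. The concentration for 50% growth inhibition is given as GI50. TGI denotes the concentration required for complete inhibition of growth.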

Key:
Assay in all cases: NCI anticancer screen, dose series, 48 h
SR leukemia = test system: SR leukemia
BT-549 breast = test system: BT-549 breast
UO-31 renal = test system: UO-31 renal
SK-OV-3 ovarian = test system: SK-OV-3 ovarian
SF-268 CNS = test system: SF-268 CNS
OVCAR-3 ovarian = test system: OVCAR-3 ovarian
SW-620 colon = test system: SW-620 colon
PC-3 prostate = test system: PC-3 prostate
OVCAR-5 ovarian = test system: OVCAR-5 ovarian
M14 melanoma = test system: M14 melanoma

Row | Structure (SMILES) | TGI (SR leukemia) [µM] | GI50 (BT-549 breast) [µM] | TGI (BT-549 breast) [µM] | GI50 (UO-31 renal) [µM] | TGI (UO-31 renal) [µM] | GI50 (SK-OV-3 ovarian) [µM] | TGI (SK-OV-3 ovarian) [µM] | GI50 (SF-268 CNS) [µM] | TGI (SF-268 CNS) [µM] | GI50 (OVCAR-3 ovarian) [µM] | TGI (OVCAR-3 ovarian) [µM] | GI50 (SW-620 colon) [µM] | TGI (SW-620 colon) [µM] | GI50 (PC-3 prostate) [µM] | TGI (PC-3 prostate) [µM] | GI50 (OVCAR-5 ovarian) [µM] | TGI (OVCAR-5 ovarian) [µM] | GI50 (M14 melanoma) [µM] | TGI (M14 melanoma) [µM] | GI50 (SR leukemia) [µM]
1 | CCCCCCCCCCCCOC1C(CNC(=O)C2OC3OC(C)(C)OC3C2NC(=O)CN2CCN(c3ccccn3)CC2)OC2OC(C)(C)OC21 (centres undefined) | 1.86 | 1.83 | 3.39 | 1.42 | 2.72 | 5.18 | 9.86 | 2.26 | 6.31 | 1.54 | 3.02 | 1.69 | 3.18 | 1.75 | 3.24 | 4.11 | 8.35 | 1.68 | 3.1 | 
2 | C/C(=N\Nc1ccc2ccccc2n1)c1ccccc1O | 8.16 |  | > 100 |  | > 100 |  | > 57.6 |  | > 100 |  | > 20 |  | > 100 |  | > 100 |  | > 100 |  | > 100 | 
3 | Cc1ccc(Cl)cc1Nc1nc(C(F)(F)F)ccc1C(=O)N/N=C/c1c(Cl)cccc1Cl | 3.88 | 1.62 | 7.09 | 1.53 | 5.13 | 0.899 | 4.76 | 0.623 | 13.4 | 0.285 | 2.7 | 0.475 | 12.2 | 0.554 | > 34.3 | 2.21 | 20.4 | 1 | 5.67 | 0.251
4 | CC1(C)Cc2cccc(OCC(O)CN3CCN(c4ccc(F)cc4)CC3)c2O1 (centres undefined) | > 50 | 17.3 | 39.8 | 13.5 | > 50 | 23.2 | > 50 | 18 | > 50 | 22.9 | > 50 | 14.3 | > 50 | 14 | > 50 | 22.1 | > 50 | 7.37 | 15.1 | 13.4
5 | COC(=O)NNc1c([N+](=O)[O-])cnn(-c2ccccc2)c1=O | 0.981 |  | 3.21 |  | 15.9 |  | 17 |  | 7.71 |  | 3.56 |  | 2.24 |  | 3.21 |  | 8.23 |  | 3.29 | 
6 | CCCN(CCC)c1ccc(C=O)cc1 | > 100 | 35.4 | > 100 | 36.2 | > 100 | > 100 | > 100 | 53.2 | > 100 | 24.9 | > 87.4 | 54.7 | > 100 | 38.1 | > 100 | > 100 | > 100 | > 100 | > 100 | 33.7
